Reference: publication PMC12590632, “Identification and characterization of a nonpeptidic cyclophilin ligand with antiviral activity against feline and porcine α-coronaviruses” (Veterinary Research, 2025)

How the values were obtained:
Human cyclophilin A = target: T1, Human cyclophilin A (Homo sapiens, UniProt P62937); assay: PPIase enzyme assay (chymotrypsin-coupled); assay type: biochemical; conditions: 20 °C, mean ± SD of two or more experiments
T1 construct: made in house
Procedure: Human cyclophilin A was purified, and its PPIase activity in the absence or presence of SMCypI was measured as previously described. Briefly, cyclophilin A PPIase activity was measured at 20 °C using the standard chymotrypsin-coupled assay. The assay buffer (25 mM HEPES and 100 mM NaCl, pH 7.8) and purified cyclophilin A were precooled to 4 °C. Then, 5 µL of 50 mg/mL chymotrypsin in 1 mM HCl was added (final reaction volume of 500 µL). The reaction was initiated by adding the peptide substrate Suc-Ala-Ala-Cis-Pro-Phe-pNA to a LiCl/TFE solution with rapid inversion. The absorbance of p-nitroaniline was monitored at 390 nm until the reaction was complete, i.e., when the absorbance reached a plateau (1 min). The final concentration of LiCl in the assay was 20 mM, and TFE was present at a concentration of 4% (v/v). The absorbance was measured every second using a spectrophotometer (BioMate3, Thermo Fischer Scientific). For the inhibition assessment, 5 µL of the tested compound in dimethyl sulfoxide (DMSO) was added to the cyclophilin A solution in the assay buffer. CsA (Sigma‒Aldrich, Saint-Louis, USA) was used as a positive control for PPIase inhibition in all measurements. IC50 values were calculated from dose‒response curves and reported as the mean ± standard deviation of two or more experiments.

[1] = test system: FIPV (strain 79-1146) in CRFK cells; assay: SMCypI screening for FIPV infection, viral titre by end-point dilution; assay type: cell-based, feline infectious peritonitis virus; conditions: 50 µM SMCypI, MOI 1, 24 h
Procedure: CRFK cells were plated in a 96-well plate at a density of 2 × 10^4 cells/well and incubated for 24 h. The cells were infected for 1 h with FIPV at a multiplicity of infection (MOI) of 1 in the presence of 50 µM or 10 µM SMCypI or CsA, respectively. The inoculum was removed after 1 h, and inhibitors (50 μM SMCypI or 10 μM CsA) were added for 24 supplemental hours. The supernatants were collected and stored at −80 °C prior to the end-point dilution assays.
CRFK cells were plated in a 96-well plate at a density of 2 × 10^4 cells/well and incubated for 24 h. Serial tenfold dilutions (10^–1 to 10^–6) of viral supernatants, obtained with or without cyclophilin inhibitors, were added to CRFK cells in eight replicate wells per dilution. The viral inoculum was removed 2 h after infection, and the cells were incubated for 24 h at 37 °C. The cells were fixed via sequential incubation in absolute ethanol followed by 70% ethanol (10 min each at room temperature). FIPV antigens were then detected by immunofluorescence using ascitic fluid from an infected cat (dilution 1/500), followed by incubation with an anti-cat AlexaFluor-488-conjugated secondary antibody (Jackson ImmunoResearch, West Grove, USA). Wells containing fluorescent cells were counted. The 50% infectious dose (ID50) was calculated using the Spearman–Karber method. […]

[2] = test system: FIPV (strain 79-1146) in CRFK cells; assay: FIPV viral titre in cell supernatants, dose response in CRFK cells; assay type: cell-based, feline infectious peritonitis virus; conditions: for Decrease of FIPV virus titre: 25 µM
Procedure: (§1) CRFK cells were plated in a 96-well plate at a density of 2 × 10^4 cells/well and incubated for 24 h. Serial tenfold dilutions (10^–1 to 10^–6) of viral supernatants, obtained with or without cyclophilin inhibitors, were added to CRFK cells in eight replicate wells per dilution. The viral inoculum was removed 2 h after infection, and the cells were incubated for 24 h at 37 °C. The cells were fixed via sequential incubation in absolute ethanol followed by 70% ethanol (10 min each at room temperature). FIPV antigens were then detected by immunofluorescence using ascitic fluid from an infected cat (dilution 1/500), followed by incubation with an anti-cat AlexaFluor-488-conjugated secondary antibody (Jackson ImmunoResearch, West Grove, USA). Wells containing fluorescent cells were counted. The 50% infectious dose (ID50) was calculated using the Spearman–Karber method. The results are presented as the means of ≥ 2 experiments performed in triplicate.
(§2) CRFK, PK15 and Vero cells were plated in a 96-well plate at a density of 2 × 10^4 cells/well and incubated for 18 h at 37 °C. The cells were infected with FIPV (MOI of 1), TGEV (MOI of 0.5) or PEDV (MOI of 0.5). Viral inoculation was performed in the presence of F83233, F832 and F833 at concentrations ranging from 0.1 μM to 25 μM for FIPV assays and from 0.78 µM to 12.5 µM for TGEV and PEDV. Two hours after viral inoculation, fresh medium supplemented with the same concentrations of inhibitors was added. The antiviral effect was measured at the peak of viral replication, i.e., after 24 h for FIPV and PEDV infection and after 48 h for TGEV infection. The experiments were repeated twice, and each condition was tested in duplicate or triplicate in independent wells.

FIPV in CRFK cells = assay: Time-of-drug addition assay; assay type: cell-based, feline infectious peritonitis virus
Procedure: as §1
CRFK cells were plated in a 96-well plate at a density of 2 × 10^4 cells per well and incubated for 24 h. The cells were infected with FIPV at an MOI of 1 in the presence of 5 µM F83233 (for 0 h post-infection (pi)) or in the presence of DMSO (for the other time points). After viral inoculation, the culture medium was removed, fresh medium containing 5 μM F83233 was added at 1, 3, 6, 9 or 18 h post-infection, and infection was stopped at 24 h post-inoculation. The cell supernatants were stored at −80 °C prior to end-point dilution to measure the effect of F83233 on FIPV infectivity under different conditions. The experiment was repeated three times, and each condition was tested in triplicate.

CRFK cells = assay: Cytotoxicity assay (CellTiter-Glo); assay type: cell-based, feline; conditions: 24 h, up to 25 µM
Procedure: The cells were plated in a 96-well plate at a density of 2 × 10^4 cells/well and incubated for 24 h. The culture medium was replaced with serial dilutions of culture medium containing three replicates of different concentrations (ranging from 0.9 μM to 25 μM) of F83233, F832 and F833 molecules, DMSO or media alone as controls. The plates were incubated for 24 h at 37 °C. Cytotoxicity was evaluated with the CellTiter-Glo Cell Viability Assay Kit (Promega, Madison, USA).

[3] = test system: TGEV (Purdue strain) in PK15 cells; assay: TGEV infection in PK15 cells, immunofluorescence, infected area; assay type: cell-based, transmissible gastroenteritis virus; conditions: for Effect on TGEV infection: 12.5 µM
Procedure: as §2
(§3) Fixed PK15 and Vero cells were processed similarly. TGEV infection was detected with a homemade anti-spike antibody (called 51.13 [46, 47], dilution 1/10 000) from a mouse and with an anti-mouse AlexaFluor-555-conjugated secondary antibody. PEDV infection was detected with polyclonal antibodies from pigs (a gift from Drs. Y. Blanchard and M. Contrant, Anses, Ploufragan, dilution 1/300) and with an anti-pig AlexaFluor-488-conjugated secondary antibody (SouthernBiotech, Birmingham, USA). […] (J2 from Cell Signaling Technology, Danvers, USA, dilution 1/1000), followed by incubation with an anti-mouse AlexaFluor-555-conjugated secondary antibody. The cells were counterstained with DAPI (Sigma‒Aldrich, final concentration of 1 µg/mL). Secondary antibodies (with the exception of the anti-pig at a 1/400 dilution) were used at a 1/800 dilution and were obtained from Molecular Probes (Thermo Fischer Scientific).
(§4) For each concentration of F832, F833 or F83233, 3 to 5 pictures were randomly taken with an epifluorescence microscope (Zeiss, Oberkochen, Germany) with a 10X objective. The area of staining was measured with ImageJ. The number of nuclei/syncytia (defined as PEDV-positive cells with > 4 nuclei) in PEDV-infected cells was manually counted using ImageJ. Blind analysis was performed to avoid bias.

[4] = test system: PEDV (CV777 strain) in Vero cells; assay: PEDV infection in Vero cells, immunofluorescence, infected area; assay type: cell-based, porcine epidemic diarrhoea virus; conditions: for Antiviral potency against PEDV: MOI 0.5, 24 h, 0.78-12.5 µM
Procedure: as §2, §3, §4

[5] = test system: PEDV (CV777 strain) in Vero cells; assay: PEDV-induced syncytium formation and dsRNA staining in Vero cells; assay type: cell-based, porcine epidemic diarrhoea virus; conditions: 12.5 µM
Text: as §3, §4

[6] = 5 µM F83233, FIPV MOI 1, CRFK cells

T1 sequence (P62937 whole entry): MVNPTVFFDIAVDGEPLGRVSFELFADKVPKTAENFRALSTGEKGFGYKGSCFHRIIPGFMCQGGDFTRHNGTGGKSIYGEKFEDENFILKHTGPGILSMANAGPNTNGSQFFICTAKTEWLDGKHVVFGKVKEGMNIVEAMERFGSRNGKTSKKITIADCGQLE

| SMILES | IC50 (Human cyclophilin A) [nM] | Inhibition of FIPV titre [1] | Reduction in FIPV viral titre ([2]; 5 µM, 24 h) | FIPV viral reduction ([2]; 10 µM) | Maximal inhibitory effect, decrease of FIPV titre ([2]; 12.5 µM, 24 h) | Decrease of FIPV virus titre ([2]; 24 h) | Decrease of antiviral efficiency between addition at 1 and 3 h post-infection (FIPV in CRFK cells; [6]) | Time of addition giving the maximal antiviral effect (FIPV in CRFK cells; [6]) | Inhibition of FIPV titre compared with DMSO control (FIPV in CRFK cells; 5 µM F83233 added 18 h post-infection) | Cytotoxicity (CRFK cells) | Effect on TGEV-infected cells ([3]; 6.25 µM and 12.5 µM, 48 h) | Concentration at which active against TGEV ([3]; MOI 0.5, 48 h) [µM] | Effect on PEDV infection ([4]; 3.125 µM, 24 h) | Double-strand RNA staining (viral genome replication) in syncytia [5] | Size of PEDV-induced syncytia and number of nuclei per syncytium [5] | Effect on TGEV infection ([3]; MOI 0.5, 48 h) | Antiviral potency against PEDV [4] |
| --- | --- | --- | --- | --- | --- | --- | --- | --- | --- | --- | --- | --- | --- | --- | --- | --- | --- |
| O=C(NCc1ccc2c(c1)CCCN2)NC(C(=O)N1CCCC1c1cccc2ccsc12)C1CCCCC1 (stereo not shown) [Compound F83233] | 700 ± 500 | more than 4 Log10 | approximately 2 Log10 | approximately 3 Log10 | 3–4 Log10 | ≈ 3 Log10 | more than 1 Log10 | simultaneously with the virus or 1 h later | ≈ 1 Log10 | low cytotoxicity | almost complete disappearance of infected cells | 1.6 | important reduction in infection | markedly impacted | drastically decreased | – | – |
| Nc1ccc(CNC(=O)NC(C(=O)N2CCCC2c2cccc3ccsc23)C2CCCCC2)cc1 (stereo not shown) [Compound F833] | 600 ± 100 | – | – | – | – | ≈ 0.5 Log10 | – | – | – | low cytotoxicity | – | – | – | – | – | no significant effect | modest antiviral potency |
| O=C(NCc1ccc2c(c1)CCCN2)NC(C(=O)N1CCCC1c1cccc2ccsc12)c1ccccc1 (stereo not shown) [Compound F832] | 400 ± 90 | – | – | – | – | ≈ 0.5 Log10 | – | – | – | low cytotoxicity | – | – | – | – | – | no significant effect | modest antiviral potency |
